# The source made the active and inactive calls.
# Columns and labels:
# Hexokinase HKDC1 = target: T1, Hexokinase HKDC1 (Homo sapiens, UniProt Q2TB90); assay: inhibition of HKDC1 glucose phosphorylation – biochemical, W721R variant, dose response (AID 504729); type: functional
# T1 sequence (Q2TB90 whole entry): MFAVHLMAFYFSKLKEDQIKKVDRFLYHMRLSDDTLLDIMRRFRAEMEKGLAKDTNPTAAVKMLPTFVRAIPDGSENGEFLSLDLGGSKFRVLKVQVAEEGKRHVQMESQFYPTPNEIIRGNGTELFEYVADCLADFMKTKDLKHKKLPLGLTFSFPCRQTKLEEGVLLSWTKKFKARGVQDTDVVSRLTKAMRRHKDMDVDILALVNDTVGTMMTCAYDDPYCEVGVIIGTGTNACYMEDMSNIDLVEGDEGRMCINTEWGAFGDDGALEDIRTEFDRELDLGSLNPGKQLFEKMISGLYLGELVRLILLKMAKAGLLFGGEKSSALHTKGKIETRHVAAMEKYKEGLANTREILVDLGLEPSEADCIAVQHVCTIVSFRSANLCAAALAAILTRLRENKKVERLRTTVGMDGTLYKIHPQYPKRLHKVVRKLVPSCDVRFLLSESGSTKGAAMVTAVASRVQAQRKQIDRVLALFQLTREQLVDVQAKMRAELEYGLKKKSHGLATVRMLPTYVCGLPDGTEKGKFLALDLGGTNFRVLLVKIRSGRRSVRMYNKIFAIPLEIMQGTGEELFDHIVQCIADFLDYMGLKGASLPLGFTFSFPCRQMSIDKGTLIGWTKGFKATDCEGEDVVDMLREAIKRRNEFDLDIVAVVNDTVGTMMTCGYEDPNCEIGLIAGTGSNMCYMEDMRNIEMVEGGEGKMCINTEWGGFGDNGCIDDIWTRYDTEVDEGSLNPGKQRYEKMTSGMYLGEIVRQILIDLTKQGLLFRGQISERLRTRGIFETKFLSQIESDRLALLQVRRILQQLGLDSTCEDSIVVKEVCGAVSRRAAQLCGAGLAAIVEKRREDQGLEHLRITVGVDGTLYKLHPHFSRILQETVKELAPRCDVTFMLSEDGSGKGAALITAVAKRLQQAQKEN
# [1] = NIH3T3 cell viability loss – ATP luminescence, mouse fibroblasts, counter-screen, dose response (AID 2010); type: functional, cell-based;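 note: cells exposed to compound for about 90 hours before reading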
# [2] = target: 1-phosphatidylinositol 4,5-bisphosphate phosphodiesterase gamma-1 (Homo sapiens, UniProt P19174); assay: Counterscreen for inhibitors of phospholipase C isozymes (PLC-B3): Fluorescence-based biochemical high throughput dose response assay to identify inhibitors of phospholipase C isozymes (PLC-gamma1).
# [3] = target: NAD-dependent protein deacylase sirtuin-5, mitochondrial (Homo sapiens, UniProt Q9NXA8); assay: sirtuin-5 deacylation blockers, concentration series – biochemical, fluorescence imaging, cherry-pick, set 5, dose response (AID 720591);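 note: desuccinylation of succinyl peptide AMC substrate read as fluorescence after trypsin release; potency of inhibitors that lower fluorescence and may act on trypsin instead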
# [4] = target: Likely tRNA 2'-phosphotransferase (Candida albicans (strain SC5314 / ATCC MYA-2876) (Yeast), UniProt Q5A7N4); assay: inhibition of Candida TPT1 enzyme activity – biochemical, fluorescence polarization, dose response (AID 2160)
# Streptococcus = assay: GAS UMAA2166 growth inhibition – luminescence, BacTiterGlo, counter-screen for streptokinase expression inhibitor project, dose response (AID 1915); type: functional, organism-based;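 note: potency for reduction of bacterial viability or growth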
# [5] = Counterscreen for AddAB inhibitors: absorbance-based bacterial cell-based high throughput dose response assay for inhibitors of bacterial viability. [Related pubchem assays (depositor defined):AID435030, AID449728, AID449731, AID488942, AID488955, AID488956]; type: functional
# Paired box protein Pax-8 = Paired box protein Pax-8 (Homo sapiens, UniProt Q06710); assay: PAX8 transcriptional activity inhibition in RMG-I – RMG-I cells, luciferase, cherry-pick, dose response (AID 687027); type: functional, cell-based;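 note: luciferase reporter driven by Pax8 target thyroperoxidase promoter measured by SteadyGlo luminescence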
# [6] = target: T2, Sentrin-specific protease 6 (Homo sapiens, UniProt Q9GZR1); type: functional;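 note: Luminescence-based dose-response confirmatory assay of SENP6 inhibition, following up an ultra-high-throughput screen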
# T2 sequence (Q9GZR1 whole entry): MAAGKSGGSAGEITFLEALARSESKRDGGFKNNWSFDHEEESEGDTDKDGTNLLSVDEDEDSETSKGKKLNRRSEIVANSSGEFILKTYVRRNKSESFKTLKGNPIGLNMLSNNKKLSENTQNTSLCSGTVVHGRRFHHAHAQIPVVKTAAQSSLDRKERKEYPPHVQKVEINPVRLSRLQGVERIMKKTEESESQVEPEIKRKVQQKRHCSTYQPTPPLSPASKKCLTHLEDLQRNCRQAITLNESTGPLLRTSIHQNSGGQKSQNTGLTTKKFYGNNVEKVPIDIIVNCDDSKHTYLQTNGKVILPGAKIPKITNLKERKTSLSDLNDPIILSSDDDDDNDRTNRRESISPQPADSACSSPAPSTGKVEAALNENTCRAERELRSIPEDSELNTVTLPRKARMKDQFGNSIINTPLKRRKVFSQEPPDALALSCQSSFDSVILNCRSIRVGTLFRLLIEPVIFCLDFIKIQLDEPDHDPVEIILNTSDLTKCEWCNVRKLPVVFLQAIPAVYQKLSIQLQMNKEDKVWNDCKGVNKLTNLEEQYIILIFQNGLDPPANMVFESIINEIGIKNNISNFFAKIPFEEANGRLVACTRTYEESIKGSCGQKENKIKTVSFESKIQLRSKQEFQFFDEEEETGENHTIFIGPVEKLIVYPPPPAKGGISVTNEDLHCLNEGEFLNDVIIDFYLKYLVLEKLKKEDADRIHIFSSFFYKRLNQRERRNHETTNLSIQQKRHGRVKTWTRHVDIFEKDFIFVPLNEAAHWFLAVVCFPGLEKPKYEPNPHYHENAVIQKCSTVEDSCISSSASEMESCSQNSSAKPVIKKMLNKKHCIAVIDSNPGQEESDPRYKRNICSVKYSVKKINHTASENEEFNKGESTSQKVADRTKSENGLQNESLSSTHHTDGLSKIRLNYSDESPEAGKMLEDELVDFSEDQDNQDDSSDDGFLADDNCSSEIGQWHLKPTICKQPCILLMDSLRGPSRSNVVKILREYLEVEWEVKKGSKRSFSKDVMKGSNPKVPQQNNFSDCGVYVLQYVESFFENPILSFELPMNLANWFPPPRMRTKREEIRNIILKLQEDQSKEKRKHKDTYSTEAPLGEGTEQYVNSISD
# Chain of NAD-dependent protein deacylase sirtuin-5, mitochondrial (Q9NXA8 whole entry): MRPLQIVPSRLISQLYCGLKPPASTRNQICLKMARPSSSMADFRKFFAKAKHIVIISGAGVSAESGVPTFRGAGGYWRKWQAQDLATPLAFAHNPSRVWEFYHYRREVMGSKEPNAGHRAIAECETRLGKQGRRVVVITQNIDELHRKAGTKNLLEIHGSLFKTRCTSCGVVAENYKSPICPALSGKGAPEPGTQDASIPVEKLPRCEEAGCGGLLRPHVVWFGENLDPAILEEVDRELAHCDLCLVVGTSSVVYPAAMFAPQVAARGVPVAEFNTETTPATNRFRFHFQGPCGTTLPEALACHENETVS
# Chain of 1-phosphatidylinositol 4,5-bisphosphate phosphodiesterase gamma-1 (P19174 whole entry): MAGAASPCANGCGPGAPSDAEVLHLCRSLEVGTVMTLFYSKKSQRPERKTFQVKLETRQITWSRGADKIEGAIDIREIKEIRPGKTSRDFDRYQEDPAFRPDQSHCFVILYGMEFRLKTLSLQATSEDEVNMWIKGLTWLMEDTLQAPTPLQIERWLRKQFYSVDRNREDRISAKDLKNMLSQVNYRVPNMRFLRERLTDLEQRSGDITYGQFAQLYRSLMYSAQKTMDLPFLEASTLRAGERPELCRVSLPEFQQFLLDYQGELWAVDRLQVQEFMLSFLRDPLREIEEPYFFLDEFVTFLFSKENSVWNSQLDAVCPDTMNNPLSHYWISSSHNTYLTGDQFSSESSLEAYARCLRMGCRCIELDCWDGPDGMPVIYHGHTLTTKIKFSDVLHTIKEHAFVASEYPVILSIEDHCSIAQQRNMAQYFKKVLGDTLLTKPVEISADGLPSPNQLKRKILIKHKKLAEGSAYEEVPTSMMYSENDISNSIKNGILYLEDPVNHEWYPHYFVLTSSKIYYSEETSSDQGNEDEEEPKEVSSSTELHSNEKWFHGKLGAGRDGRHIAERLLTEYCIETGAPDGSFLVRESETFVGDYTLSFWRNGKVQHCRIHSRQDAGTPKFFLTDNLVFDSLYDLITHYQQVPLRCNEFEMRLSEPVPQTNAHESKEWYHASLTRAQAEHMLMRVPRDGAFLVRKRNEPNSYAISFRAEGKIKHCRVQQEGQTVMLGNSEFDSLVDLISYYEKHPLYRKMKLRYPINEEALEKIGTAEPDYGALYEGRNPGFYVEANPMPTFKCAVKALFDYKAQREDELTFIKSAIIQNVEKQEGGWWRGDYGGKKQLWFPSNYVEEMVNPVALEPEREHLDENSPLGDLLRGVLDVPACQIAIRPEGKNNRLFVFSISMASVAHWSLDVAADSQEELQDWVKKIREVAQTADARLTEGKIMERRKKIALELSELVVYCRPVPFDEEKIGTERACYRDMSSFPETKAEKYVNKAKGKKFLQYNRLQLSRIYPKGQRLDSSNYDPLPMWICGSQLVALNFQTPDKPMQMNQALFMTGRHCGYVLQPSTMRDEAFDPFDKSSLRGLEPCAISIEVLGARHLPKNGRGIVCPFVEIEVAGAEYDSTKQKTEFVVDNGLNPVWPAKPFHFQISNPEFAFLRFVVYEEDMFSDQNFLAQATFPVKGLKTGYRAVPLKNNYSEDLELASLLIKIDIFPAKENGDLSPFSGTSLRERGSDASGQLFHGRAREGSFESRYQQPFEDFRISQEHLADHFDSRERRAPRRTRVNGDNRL
# Chain of Paired box protein Pax-8 (Q06710 whole entry): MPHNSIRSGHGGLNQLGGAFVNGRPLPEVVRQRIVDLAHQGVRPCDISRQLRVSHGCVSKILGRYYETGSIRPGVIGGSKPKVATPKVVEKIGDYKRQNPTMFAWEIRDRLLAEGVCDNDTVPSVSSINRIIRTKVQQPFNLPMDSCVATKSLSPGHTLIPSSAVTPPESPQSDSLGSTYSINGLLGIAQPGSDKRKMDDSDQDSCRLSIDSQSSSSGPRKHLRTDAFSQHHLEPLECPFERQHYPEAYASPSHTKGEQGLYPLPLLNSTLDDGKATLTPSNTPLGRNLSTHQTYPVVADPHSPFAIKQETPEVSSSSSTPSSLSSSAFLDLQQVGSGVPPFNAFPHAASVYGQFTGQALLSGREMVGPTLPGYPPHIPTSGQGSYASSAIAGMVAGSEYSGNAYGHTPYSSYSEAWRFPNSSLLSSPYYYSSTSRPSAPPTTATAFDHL
# Chain of Likely tRNA 2'-phosphotransferase (Q5A7N4 whole entry): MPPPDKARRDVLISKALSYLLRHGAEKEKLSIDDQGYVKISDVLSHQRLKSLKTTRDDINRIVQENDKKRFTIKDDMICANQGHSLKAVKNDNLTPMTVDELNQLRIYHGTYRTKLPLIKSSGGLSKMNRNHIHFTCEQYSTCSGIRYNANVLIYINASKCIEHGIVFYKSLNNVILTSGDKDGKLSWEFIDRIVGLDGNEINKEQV
smiles,measurement,setting,value
COC(=O)c1cc(C)nc2c1C(=O)C(=O)C=C2N1CCOCC1,IC50,Hexokinase HKDC1,4.41 µM (active)
same,EC50,[1],> 16 µM (not active)
same,IC50,[2],13.7 µM (inactive)
NS(=O)(=O)c1cc(C(=O)NC2CCSc3ccccc32)ccc1Cl (centres undefined),AC50,[3],6.65 µM (active)
same,IC50,[4],4.4 µM (active)
O=C1c2ccccc2C(=O)c2[nH]c(O)nc21,EC50,Streptococcus,> 150 µM (not active)
same,IC50,[5],> 119 µM (inactive)
same,AC50,Paired box protein Pax-8,5.72 µM (active)
CCOC(=O)C1=C(C)OC2(O)c3ccccc3C(=O)C12O (centres undefined),IC50,[6],2.7 µM (active)

# From ChEMBL document CHEMBL1201862, “PubChem BioAssay data set” (2004)
